Measured values published in patent US5708169A, “5-amidomethyl α,β-saturated and -unsaturated 3-aryl butyrolactone antibacterial agents” (Pharmacia & Upjohn Company, priority 1996, dated 1998).
Converted amounts (≈) assume the structure as drawn. Read-outs that look alike come from different tables or passages of the source.

Tests used:
[1] = tested on: Staphylococcus Pneumoniae 9912; test: MIC by agar dilution (NCCLS), Streptococcus pneumoniae 9912; assay type: cell-based; conditions: S. pneumoniae 9912
Protocol: (§1) The saturated and unsaturated 3-aryl butyrolactone compounds of the present invention have useful activity against a variety of organisms. The in vitro activity of compounds of the present invention are assessed by standard testing procedures such as the determination of minimum inhibitory concentration (MIC) by agar dilution as described in "Methods for Dilution Antimicrobial Susceptiblity Tests for Bacteria That Grow Aerobically" (MFT) published January 1993 by the National Committee for Clinical Laboratory Standards. (NCCLS), 771 East Lancaster Avenue, Villanova, Pa. 19084 USA. The activity of selected compounds of the present invention against Staphylococcus aureus and Streptococcus pneumoniae are shown in Table 1.

[2] = tested on: Staphylococcus Aureus 9213; test: MIC by agar dilution (NCCLS), Staphylococcus aureus 9213; assay type: cell-based
Protocol: as §1

[3] = tested on: S. aureus UC9213; test: Murine Assay, in vivo antimicrobial activity (ED50, survival); parameters: species or system Staphylococcus aureus (infected female mice); conditions: Staphylococcus aureus, 144 h, read-out: ED50 (S. aureus UC9213, sq)
Protocol: Antimicrobial activity was tested in vivo using the Murine Assay procedure. Groups of female mice (six mice of 18-20 grams each) are injected intraperitoneally with bacteria which is thawed just prior to use and suspended in brain heart infusion with 4% brewer's yeast (Staphylococcus aureus) or brain heart infusion (Streptococcus species). Antibiotic treatment at six dose levels per drug is administered one hour and five hours after infection by either oral intubation or subcutaneous routes. Survival is observed daily for six days. ED50 values based on mortality ratios are calculated using probit analysis. The subject compounds are compared against well-known antimicrobials as controls.

COc1ccc(-c2ccc(C3=CC(CNC(C)=O)OC3=O)cc2)ccc1=O (centres unmarked) [Example 1, Acetamide, N-[[4-[4-[4-(2-methoxy)-5-oxo-1,3,6-cycloheptatrien-1-yl]phenyl]-2,5-dihydro-5-oxo-2-furanyl]methyl]-]
MIC [1]: < 0.5 µg/mL | MIC ([2]; AUREUS9213, agar dilution, S. aureus 9213, read-out: MIC Staphylococcus Aureus 9213): 2 µg/mL (≈ 5.47 µM) | ED50 ([3]; infected ip, mice infected i.p. with S. aureus UC9213, sq treatment 1 h and 5 h after infection, survival six days, probit analysis): 9.3 mg/kg

CN[C@H](CC(C)C)C(=O)N[C@H]1C(=O)N[C@@H](CC(N)=O)C(=O)N[C@H]2C(=O)N[C@H]3C(=O)N[C@H](C(=O)N[C@H](C(=O)O)c4cc(O)cc(O)c4-c4cc3ccc4O)[C@H](O)c3ccc(c(Cl)c3)Oc3cc2cc(c3O[C@@H]2O[C@H](CO)[C@@H](O)[C@H](O)[C@H]2O[C@H]2C[C@](C)(N)[C@H](O)[C@H](C)O2)Oc2ccc(cc2Cl)[C@H]1O [Vancomycin, reference compound]
MIC ([2]; AUREUS9213, read-out: Vancomycin MIC): 1 µg/mL (≈ 0.69 µM) | ED50 ([3]; UC9213, infected ip): 1.9 mg/kg
